# Assay results taken from the NIST ThermoML archive (doi:10.1016/j.jct.2017.08.012).
# ± gives the expanded uncertainty stated by the source.
# Conditions: 101.33 kPa, Liquid, Vibrating tube method
structure (smiles),measurement,setting,value
CCCCCC [hexane],mass density,293.15 K,659.4 ± 4.1 kg/m3
same,mass density,298.15 K,654.76 ± 4 kg/m3
same,mass density,303.15 K,650.21 ± 4 kg/m3
same,mass density,308.15 K,645.43 ± 4 kg/m3
same,mass density,313.15 K,640.75 ± 4 kg/m3
